These are literature values, as cited in publication PMC8537988, “Re-Use of Caco-2 Monolayers in Permeability Assays—Validation Regarding Cell Monolayer Integrity” (Pharmaceutics, 2021).

Data set [1] concerns Caco-2 monolayers. Details: method as in PMID 34247356. The following applies: day 23 post-seeding, 90 min sampling interval; cited from earlier work.
In data set [2] the test system is transporters in the membrane (influx or efflux). Details: method as in PMID 9213361. The following applies: cited from earlier work.

Turning to “Lucifer yellow CH di-potassium salt [LY]”, the “amount of LY that permeates through Caco-2 monolayers” value in data set [1] is listed as 0.27%. For the same substance, in data set [2], the “substrate of transporters in the membrane (influx or efflux)” value was “not a substrate of transporters in the membrane (influx or efflux)”.
